Consider one compound from ChEMBL document CHEMBL3808380, “Discovery of a novel covalent non-β-lactam inhibitor of the metallo-β-lactamase NDM-1” (Bioorg Med Chem, 2016).

Structures are written as SMILES. Activity calls are given as the source filed them. The calls are words filed in the database; no cut-off is given here.

For test [1], the target named is Metallo-beta-lactamase type 2 (Klebsiella pneumoniae) (UniProt C7C422). The note with it: 200 uM.
Test [2] concerns Klebsiella pneumoniae. The test can be described thus: Binding affinity to Klebsiella pneumoniae 6xHis-tagged metallo-beta-lactamase NDM-1 K224A mutant expressed in Escherichia coli BL21 (DE3)pLysS at 1.5 mM after 3 hrs by ESI-MS analysis.
Test [3] can be described thus: Inhibition of beta-lactamase VIM-2 (unknown origin).
Test [4] addresses T1, Metallo-beta-lactamase type 2 (Klebsiella pneumoniae, UniProt C7C422). The test can be described thus: Time-dependent inhibition of wild type Klebsiella pneumoniae 6xHis-tagged metallo-beta-lactamase NDM-1 expressed in Escherichia coli BL21 (DE3)pLysS.
Test [5] deals with T1, Metallo-beta-lactamase type 2. The test can be described thus: Time-dependent inhibition of wild type Klebsiella pneumoniae 6xHis-tagged metallo-beta-lactamase NDM-1 expressed in Escherichia coli BL21 (DE3)pLysS assessed as inhibition constant for initial non-covalant complex.
Test [6] addresses Metallo-beta-lactamase type 2 (Klebsiella pneumoniae) (UniProt C7C422). Conditions: 2 uM.
Test [7] concerns Klebsiella pneumoniae. Put plainly: Inhibition of Klebsiella pneumoniae 6xHis-tagged metallo-beta-lactamase NDM-1 K224A mutant expressed in Escherichia coli BL21 (DE3)pLysS assessed as hydrolysis of imipenem up to 750 uM after 20 mins.

Metallo-beta-lactamase type 2 (Klebsiella pneumoniae), sequence (C7C422 whole entry): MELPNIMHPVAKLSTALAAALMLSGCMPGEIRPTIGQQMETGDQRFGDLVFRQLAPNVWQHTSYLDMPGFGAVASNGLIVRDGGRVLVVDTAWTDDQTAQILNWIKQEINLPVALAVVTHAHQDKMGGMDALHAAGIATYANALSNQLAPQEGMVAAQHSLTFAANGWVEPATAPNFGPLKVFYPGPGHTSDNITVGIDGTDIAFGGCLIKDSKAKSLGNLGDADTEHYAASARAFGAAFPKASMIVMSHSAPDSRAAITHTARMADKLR
T1 sequence (C7C422 whole entry): as above

On to `O=Cc1coc2ccccc2c1=O`, for which the inhibition result in test [1] and in test [6] was “tde” throughout. Moreover, in test [2], the outcome was inactive. Moreover, the inhibition entry in test [3] and in test [7] was “inactive” in each case. Further, the Ki in test [4] worked out at 0.58 µM; in test [5], 76 µM.
